The source made the active and inactive calls. The rule behind the calls is not given here.
What was measured:
Coxsackievirus A16 [1] = experiment: Antiviral activity against Coxsackievirus A16 TA271 infected in RD cells at release stage assessed as appearance of rounded cells at 0.08 uM/L preincubated with cells for 1 hr followed by replacement of fresh medium containing compounds after 5 hrs post infection and further incubated for 16 hrs post infection by inverted microscopic analysis; assay type: functional, cell-based
Coxsackievirus A16 [2] = experiment: Antiviral activity against Coxsackievirus A16 TA271 infected in ICR mouse assessed as mild alveolar fibrosis in heart at 2 mg/kg, im after 5 days post infection by H and E staining based histopathological analysis; assay type: functional, organism-based
Coxsackievirus A16 [3] = experiment: Antiviral activity against Coxsackievirus A16 LW2 infected in RD cells assessed as reduction in viral genome copies at 0.08 uM/L preincubated with viral suspension for 2 hrs followed by cell addition and measured at 24 hrs post infection by RT-PCR analysis; assay type: functional, cell-based
Coxsackievirus A16 [4] = experiment: Antiviral activity against Coxsackievirus A16 TA271 infected in ICR mouse assessed as reduction in lesions in lung at 2 mg/kg, im after 5 days post infection by H and E staining based histopathological analysis; assay type: functional, organism-based
Coxsackievirus A16 [5] = experiment: Antiviral activity against Coxsackievirus A16 TA271 infected in ICR mouse assessed as increase in inflammatory cell proliferation in spinal muscles at 0.08 uM/L preincubated with viral suspension for 2 hrs followed by intramuscular administration after 5 days post infection by H and E staining based histopathological analysis; assay type: functional
Coxsackievirus A16 [6] = experiment: Antiviral activity against Coxsackievirus A16 TA271 infected in ICR mouse assessed as reduction in lesions in hind limb muscle at 2 mg/kg, im after 5 days post infection by H and E staining based histopathological analysis; assay type: functional, organism-based
Coxsackievirus A16 [7] = experiment: Antiviral activity against Coxsackievirus A16 TA271 infected in ICR mouse assessed as mild alveolar wall thickening in spinal muscle at 2 mg/kg, im after 5 days post infection by H and E staining based histopathological analysis; assay type: functional, organism-based
Coxsackievirus A16 [8] = experiment: Antiviral activity against Coxsackievirus A16 TA271 infected in ICR mouse assessed as reduction in inflammatory cell infiltration in hind limb muscle at 2 mg/kg, im after 5 days post infection by H and E staining based histopathological analysis; assay type: functional, organism-based
Coxsackievirus A16 [9] = experiment: Antiviral activity against Coxsackievirus A16 TA271 infected in ICR mouse assessed as mild alveolar fibrosis in hind limb muscle at 2 mg/kg, im after 5 days post infection by H and E staining based histopathological analysis; assay type: functional, organism-based

## CC(=O)OC(CC=C(C)C)C1=CC(=O)c2c(O)ccc(O)c2C1=O (centres undefined)
Coxsackievirus A16 [1]
  Activity: inactive
Coxsackievirus A16 [2]
  Activity: Active
Coxsackievirus A16 [3]
  Activity: Active
Coxsackievirus A16 [4]
  Activity: Active
Coxsackievirus A16 [5]
  Activity: Active
Coxsackievirus A16 [6]
  Activity: Active
Coxsackievirus A16 [7]
  Activity: Active
Coxsackievirus A16 [8]
  Activity: Active
Coxsackievirus A16 [9]
  Activity: Active

— ChEMBL document CHEMBL4334442, “Effects of Acetylshikonin on the Infection and Replication of Coxsackievirus A16 in Vitro and in Vivo” (J Nat Prod, 2019)
